Test results reported in article PMC9886266, “New [1,2,4]triazolo[4,3-c]quinazolines as intercalative Topo II inhibitors: Design, synthesis, biological evaluation, and in silico studies” (PLOS ONE, 2023).

Assays:
BAX/Bcl-2 ratio = test: Western blot, BAX/Bcl-2 ratio; format: cell-based, human; settings: HCT-116, 2.44 μM, 48 h; control = 1.00
Protocol: (§1) In comparison to the control, compound 16 elevated the level of the proapoptotic protein (BAX) by 2.18 times. […] Furthermore, compound 16 enhanced the BAX/Bcl-2 ratio by 4.38-fold in comparison to control cells.
(§2) The effects of compound 16 on the expression of BAX, and Bcl‐2 were determined using Western blot analysis [62–64]as described in Electronic Supplementary Material S2.7 in S1 Appendix. […]
(§3) for 48 h. Then, the cells were fixed in 70% ethanol at 4 °C for 12 h. After that, the cells were washed with cold PBS, incubated with 100 μl RNase A at 37 °C for 30 min, and stained with 400 μl PI in the dark at room temperature for further 30 min. The stained cells were measured using Epics XL-MCL™ Flow Cytometer (Beckman Coulter), and the data were analyzed using Flowing software (version 2.5.1, Turku Centre for Biotechnology, Turku, Finland).
(§4) S2.6. Flow cytometry analysis for apoptosis
(§5) Flow cytometry cell apoptosis analysis was used to investigate the apoptotic effect of the synthesized compounds. […] The stained cells were measured using Epics XL-MCL™ Flow Cytometer and analyzed using Flowing software. […]
(§6) The proteins expression of BAX, and Bcl‐2 were determined using Western blot analysis. […] Total protein concentrations in the supernatant were determined colorimetrically using the Pierce 660 nm Protein Assay method (Thermo Fisher Scientific, Rockford, IL), with BSA as the standard. […]

HCT-116 cells = test: Flow cytometry apoptosis analysis (Annexin V and PI double staining); format: cell-based, human; settings: HCT-116, 2.44 μM, 48 h
Protocol: The Annexin V and PI double staining experiment was used to further investigate the apoptotic effect of compound 16 in HCT-116 cells. In this process, HCT-116 cells were treated with compound 16 at a concentration of 2.44 μM and incubated for 48 h. The apoptotic effect of compound 16 on HCT-116 cells was about nine times greater than that of untreated HCT-116 cells. In comparison to control cells (5.62%), compound 16 caused 48.82% programmed cell death (early apoptosis = 46.77% & late apoptosis = 2.05%) (Table 3 and Fig 4B).
Flow cytometry cell apoptosis analysis was used to investigate the apoptotic effect of compound 16 as follows.
[…] cells were treated with compound 16 (2.44 μM) for 48 h, collected by trypsin, centrifuged, washed two successive times with PBS, suspended in 500 μl binding buffer, and double stained with 5 μl Annexin V-FITC and 5 μl PI in the dark at room temperature for 15 min. The stained cells were measured using Epics XL-MCL™ Flow Cytometer and analyzed using Flowing software. […]
as §4
Flow cytometry cell apoptosis analysis was used to investigate the apoptotic effect of the synthesized compounds. […] cells were treated with compound 16 (2.44 µM) for 48 h, collected by trypsin, centrifuged, washed two successive times with PBS, suspended in 500 μl binding buffer, and double stained with 5 μl Annexin V-FITC and 5 μl PI in the dark at room temperature for 15 min. The stained cells were measured using Epics XL-MCL™ Flow Cytometer and analyzed using Flowing software.

Bcl-2 = test: Western blot, Bcl-2 level; format: cell-based, human; settings: HCT-116, 2.44 μM, 48 h
Protocol: as §1, §2, §3, §4, §5, §6

[1] = system: Activated Calf Thymus DNA; test: DNA/methyl green assay (DNA intercalation); format: binding
Protocol: The most promising members (13a, 14a, 16, 17, 18, 19, and 20) were further investigated for their binding affinity against DNA. […] The results of DNA-binding affinities were reported in Table 1 as IC50 values calculated from the concentration-inhibition response curve.
Activated Calf Thymus DNA (Merk, Germany) was treated with methyl green (Merk, Germany), then the synthesized compounds were applied to displace the methyl green dye, producing equivalent color.
After that, the DNA was run on 1% agarose gel in BioRad gel electrophoresis system for 1–2 h followed by staining with GelRedTM stain for 2 h and destained for 15 min with TAE buffer. The gel was imaged via BioRad’s Gel DocTMEZ system. Both supercoiled and linear strands DNA were incorporated in the gel as markers for DNA-Topo II intercalators. The results of IC50 values were calculated using the GraphPad Prism version 7. Each reaction was performed in duplicate, and at least three independent determinations of each IC50 were made.
S2.3. DNA/Methyl Green Assay […]
methyl green dye method described by Burres et al. Activated Calf Thymus DNA (Merk, Germany) was treated with methyl green (Merk, Germany), then the synthesized compounds were applied to displace the methyl green dye, producing equivalent color. […]

SMILES: CCCNc1nc2ccccc2c2nnc(C(F)(F)F)n12 [Compound 16, N-Propyl-3-(trifluoromethyl)-[1,2,4]triazolo[4,3-c]quinazolin-5-amine]
- Protein expression (normalized to β-actin) BAX/Bcl-2 ratio (BAX/Bcl-2 ratio): 4.38 ± 0.86
- Apoptosis Early (Right Bottom) (HCT-116 cells; mean ± SEM): 46.77 ± 0.83 %
- Apoptosis Late (Right Top) (HCT-116 cells; mean ± SEM): 2.05 ± 0.92%
- Necrosis (Left Top) (HCT-116 cells; mean ± SEM): 0.90 ± 0.36
- Viable (Left Bottom) (HCT-116 cells; mean ± SEM): 50.28 ± 2.10
- Programmed cell death (early + late apoptosis) (HCT-116 cells; control cells 5.62%): 48.82%
- Reduction of Bcl-2 level compared to control (Bcl-2): 1.9 fold
- Protein expression (normalized to β-actin) Bcl-2 (Bcl-2; control = 1.00): 0.52 ± 0.08
- IC50 ([1]; 50% inhibition concentration of DNA/methyl green assay, read-out: DNA/Methyl green (IC50)): 10.2 ± 0.4 µM
- LogIC50 (best-fit value, DNA/Topo-II Inhibition (%) curve) ([1]; log of drug concentration in uM, supplement curve fit): 1.011
- HillSlope (best-fit value, DNA/Topo-II Inhibition (%) curve) ([1]; supplement curve fit): 0.3743
